Test results taken from the supplement of paper PMC10307832.

Legend:
Test in all cases: relative viability (nuclei count vs DMSO), 5 days (fraction); higher = more cells survive
[1] = compound: C1COCCN1CC2=CC(=O)C(=CO2)OCCCCCSC3=C4C=CC(=CC4=NC=C3)C(F)(F)F [EHT 1864] + CC(=O)Nc1cccc(-n2c(=O)n(C3CC3)c(=O)c3c(Nc4ccc(I)cc4F)n(C)c(=O)c(C)c32)c1 [Trametinib] (partner 0.02 µM)
Procedure, shortened: (§1)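 Relative viability equals treated-well nuclei counts divided by vehicle-well nuclei counts. Counts came from 4× images of lung cancer cell lines grown in 1536-well plates for 5 days after pin-tool dosing on the day after seeding. Dosing used one drug alone or a fixed anchor-drug dose plus five library-drug doses (not always all listed) in √10 steps, and values are medians of duplicate plates.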

[2] = compound: C1COCCN1CC2=CC(=O)C(=CO2)OCCCCCSC3=C4C=CC(=CC4=NC=C3)C(F)(F)F [EHT 1864] + O=C(c1cc(Cc2n[nH]c(=O)c3ccccc23)ccc1F)N1CCN(C(=O)C2CC2)CC1 [Olaparib] (partner 8 µM)
Procedure, shortened: as §1

[3] = compound: C1COCCN1CC2=CC(=O)C(=CO2)OCCCCCSC3=C4C=CC(=CC4=NC=C3)C(F)(F)F [EHT 1864] + CS(=O)(=O)CCNCc1ccc(-c2ccc3ncnc(Nc4ccc(OCc5cccc(F)c5)c(Cl)c4)c3c2)o1 [Lapatinib] (partner 2 µM)
Procedure, shortened: as §1

[4] = compound: C1COCCN1CC2=CC(=O)C(=CO2)OCCCCCSC3=C4C=CC(=CC4=NC=C3)C(F)(F)F [EHT 1864] + N=C(N)NC(=N)NCCc1ccccc1 [Phenformin] (partner 250 µM)
Procedure, shortened: as §1

Cell Line	relative viability ([1]; first compound 0.04 µM)	relative viability ([1]; first compound 0.1265 µM)	relative viability ([1]; first compound 0.4 µM)	relative viability ([1]; first compound 1.265 µM)	relative viability ([1]; first compound 4 µM)	relative viability ([2]; first compound 0.04 µM)	relative viability ([2]; first compound 0.1265 µM)	relative viability ([2]; first compound 0.4 µM)	relative viability ([2]; first compound 1.265 µM)	relative viability ([2]; first compound 4 µM)	relative viability ([3]; first compound 0.04 µM)	relative viability ([3]; first compound 0.1265 µM)	relative viability ([3]; first compound 0.4 µM)	relative viability ([3]; first compound 1.265 µM)	relative viability ([3]; first compound 4 µM)	relative viability ([4]; first compound 0.04 µM)	relative viability ([4]; first compound 0.1265 µM)	relative viability ([4]; first compound 0.4 µM)	relative viability ([4]; first compound 1.265 µM)	relative viability ([4]; first compound 4 µM)
NCI-H2126	0.614	0.568	0.545	0.503	0.548	0.916	0.926	0.887	0.882	0.915	0.779	0.723	0.759	0.798	0.697	0.557	0.515	0.571	0.543	0.567
LXF-289	0.676	0.609	0.615	0.616	0.657	1.12	0.963	1.02	0.953	0.97	0.883	0.821	0.883	0.851	0.799	0.517	0.463	0.507	0.549	0.547
NCI-H460	–	0.108	0.222	0.133	0.134	0.461	0.387	0.389	0.363	0.351	0.891	0.897	0.975	0.845	0.885	0.508	0.443	0.513	0.518	0.568
NCI-H1395	1.07	0.908	0.977	0.978	1.08	0.472	0.548	0.48	0.488	0.459	1.04	0.877	1.05	1.01	0.861	0.518	0.422	0.45	0.474	0.431
NCI-H358	0.138	0.126	0.153	0.14	0.124	0.626	0.594	0.574	0.551	0.548	0.477	–	0.441	0.413	0.434	0.328	0.338	0.367	0.345	0.303
NCI-H2009	0.252	0.267	0.301	0.336	0.277	0.618	0.548	0.702	0.66	0.49	0.77	0.749	0.921	0.963	0.824	0.467	0.468	0.493	0.362	0.436
